Test results: ChEMBL document CHEMBL3045118, “Synthesis and biological activities of new Mannich bases of chlorokojic acid derivatives” (Med Chem Res, 2011)
≈ marks a conversion by molar mass, not a printed value.

Columns and labels:
Bacillus subtilis [1] = experiment: Antibacterial activity against ceftriaxon-resistant Bacillus subtilis by microdilution method; type: functional
Klebsiella pneumoniae [2] = experiment: Antibacterial activity against Klebsiella pneumoniae RSKK 574 by microdilution method; type: functional
Escherichia coli [3] = experiment: Antibacterial activity against Escherichia coli ATCC 35218 by microdilution method; type: functional
Pseudomonas aeruginosa [4] = experiment: Antibacterial activity against Pseudomonas aeruginosa ATCC 10145 by microdilution method; type: functional
Proteus mirabilis [5] = experiment: Antibacterial activity against Proteus mirabilis ATCC 7002 by microdilution method; type: functional
Escherichia coli [6] = experiment: Antibacterial activity against ESbetaL positive trimethoprim-sulfamethoxazole, cefepime, tazobactam-resistant Escherichia coli isolate by microdilution method; type: functional
Enterococcus faecalis [7] = experiment: Antibacterial activity against Enterococcus faecalis ATCC 29212 by microdilution method; type: functional
Candida albicans = experiment: Antifungal activity against Candida albicans ATCC 10231 by microdilution method; type: functional
Candida parapsilosis = experiment: Antifungal activity against Candida parapsilosis ATCC 22019 by microdilution method; type: functional; conditions: Lodderomyces parapsilosis
Acinetobacter baumannii [8] = experiment: Antibacterial activity against trimethoprim-sulfamethoxazole, cefepime-resistant Acinetobacter baumannii by microdilution method; type: functional
Acinetobacter baumannii [9] = experiment: Antibacterial activity against Acinetobacter baumannii RSKK 02026 by microdilution method; type: functional
[10] = Cytotoxicity against Bos taurus (bovine) MDBK cells assessed as maximum non-toxic concentration; type: cell-based; conditions: cattle, read-out: MNCC
Pseudomonas aeruginosa [11] = experiment: Antibacterial activity against trimethoprim-sulfamethoxazole, tazobactam-resistant Pseudomonas aeruginosa by microdilution method; type: functional
Human respirovirus 3 [12] = experiment: Antiviral activity against Human parainfluenza virus 3 infected African green monkey Vero cells assessed as concentration required to cause maximum inhibition of virus-induced cytopathic effect; type: functional
Enterococcus faecalis [13] = experiment: Antibacterial activity against cephalosporins and beta-lactam-resistant Enterococcus faecalis by microdilution method; type: functional
Staphylococcus aureus [14] = experiment: Antibacterial activity against Staphylococcus aureus ATCC 25923 by microdilution method; type: functional
Klebsiella pneumoniae [15] = experiment: Antibacterial activity against ESbetaL positive trimethoprim-sulfamethoxazole, amoxicillin clavulonat, cefriaxon, cephepim, aztreonam-resistant Klebsiella pneumoniae by microdilution method; type: functional
Bacillus subtilis [16] = experiment: Antibacterial activity against Bacillus subtilis ATCC 6633 by microdilution method; type: functional
Human alphaherpesvirus 1 [17] = experiment: Antiviral activity against Human herpesvirus 1 infected bovine MDBK cells assessed as concentration required to cause maximum inhibition of virus-induced cytopathic effect; type: functional
[18] = Cytotoxicity against Chlorocebus aethiops (African green monkey) Vero cells assessed as maximum non-toxic concentration; type: cell-based; conditions: chlorocebus sabaeus, read-out: MNCC
Human respirovirus 3 [19] = experiment: Antiviral activity against Human parainfluenza virus 3 infected African green monkey Vero cells assessed as concentration required to cause minimum inhibition of virus-induced cytopathic effect; type: functional
Staphylococcus aureus [20] = experiment: Antibacterial activity against oxacillin, gentamicin, aztreonam, trimethoprim-sulfamethoxazole-resistant Staphylococcus aureus by microdilution method; type: functional
Human alphaherpesvirus 1 [21] = experiment: Antiviral activity against Human herpesvirus 1 infected bovine MDBK cells assessed as concentration required to cause minimum inhibition of virus-induced cytopathic effect; type: functional
Proteus mirabilis [22] = experiment: Antibacterial activity against ESbetaL positive rimethoprim-sulfamethoxazole, cefepime, tazobactam-resistant Proteus mirabilis by microdilution method; type: functional

Compound	MIC (Bacillus subtilis [1]) [mg/L]	MIC (Klebsiella pneumoniae [2]) [mg/L]	MIC (Escherichia coli [3]) [mg/L]	MIC (Pseudomonas aeruginosa [4]) [mg/L]	MIC (Proteus mirabilis [5]) [mg/L]	MIC (Escherichia coli [6]) [mg/L]	MIC (Enterococcus faecalis [7]) [mg/L]	MIC (Candida albicans) [mg/L]	MIC (Candida parapsilosis) [mg/L]	MIC (Acinetobacter baumannii [8]) [mg/L]	MIC (Acinetobacter baumannii [9]) [mg/L]	MNTC [10] [µg/mL]	MIC (Pseudomonas aeruginosa [11]) [mg/L]	Activity (Human respirovirus 3 [12]) [µg/mL]	MIC (Enterococcus faecalis [13]) [mg/L]	MIC (Staphylococcus aureus [14]) [mg/L]	MIC (Klebsiella pneumoniae [15]) [mg/L]	MIC (Bacillus subtilis [16]) [mg/L]	Activity (Human alphaherpesvirus 1 [17]) [µg/mL]	MNTC [18] [µg/mL]	also measured
COc1ccc(N2CCN(Cc3oc(CCl)cc(=O)c3O)CC2)cc1	64 (≈ 175 µM)	16 (≈ 43.9 µM)	32 (≈ 87.7 µM)	16 (≈ 43.9 µM)	32 (≈ 87.7 µM)	64	32 (≈ 87.7 µM)	8 (≈ 21.9 µM)	8 (≈ 21.9 µM)	32 (≈ 87.7 µM)	16 (≈ 43.9 µM)	1.6	64	0.8	64 (≈ 175 µM)	32 (≈ 87.7 µM)	32 (≈ 87.7 µM)	32 (≈ 87.7 µM)	1.6	1.6	Activity (Human respirovirus 3 [19]): 0.05 µg/mL; MIC (Staphylococcus aureus [20]): 64 mg/L (≈ 175 µM); Activity (Human alphaherpesvirus 1 [21]): 0.1 µg/mL; MIC (Proteus mirabilis [22]): 64 mg/L
O=c1cc(CCl)oc(CN2CCN(c3ccc(Cl)cc3)CC2)c1O	> 128	64 (≈ 173 µM)	64 (≈ 173 µM)	64 (≈ 173 µM)	64 (≈ 173 µM)	> 128	8 (≈ 21.7 µM)	16 (≈ 43.3 µM)	16 (≈ 43.3 µM)	> 128	64 (≈ 173 µM)	1.6	> 128	0.4	> 128	8 (≈ 21.7 µM)	> 128	16 (≈ 43.3 µM)	0.4	0.4	Activity (Human respirovirus 3 [19]): 0.025 µg/mL; MIC (Staphylococcus aureus [20]): > 128 mg/L; Activity (Human alphaherpesvirus 1 [21]): 0.1 µg/mL; MIC (Proteus mirabilis [22]): > 128 mg/L
O=c1cc(CCl)oc(CN2CCN(c3ccccc3Cl)CC2)c1O	> 128	64 (≈ 173 µM)	64 (≈ 173 µM)	64 (≈ 173 µM)	64 (≈ 173 µM)	> 128	8 (≈ 21.7 µM)	16 (≈ 43.3 µM)	16 (≈ 43.3 µM)	> 128	64 (≈ 173 µM)	1.6	> 128	0.4	> 128	8 (≈ 21.7 µM)	> 128	16 (≈ 43.3 µM)	0.4	0.4	Activity (Human respirovirus 3 [19]): 0.2 µg/mL; MIC (Staphylococcus aureus [20]): > 128 mg/L; Activity (Human alphaherpesvirus 1 [21]): 0.1 µg/mL; MIC (Proteus mirabilis [22]): > 128 mg/L
COc1cccc(N2CCN(Cc3oc(CCl)cc(=O)c3O)CC2)c1	32 (≈ 87.7 µM)	32 (≈ 87.7 µM)	32 (≈ 87.7 µM)	32 (≈ 87.7 µM)	32 (≈ 87.7 µM)	64	64 (≈ 175 µM)	8 (≈ 21.9 µM)	8 (≈ 21.9 µM)	64 (≈ 175 µM)	32 (≈ 87.7 µM)	0.8	64	0.4	128 (≈ 351 µM)	64 (≈ 175 µM)	64 (≈ 175 µM)	16 (≈ 43.9 µM)	0.8	1.6	Activity (Human respirovirus 3 [19]): 0.1 µg/mL; MIC (Staphylococcus aureus [20]): 128 mg/L (≈ 351 µM); Activity (Human alphaherpesvirus 1 [21]): 0.2 µg/mL; MIC (Proteus mirabilis [22]): 64 mg/L
O=c1cc(CCl)oc(CN2CCN(c3ccc(F)cc3)CC2)c1O	32 (≈ 90.7 µM)	16 (≈ 45.4 µM)	16 (≈ 45.4 µM)	32 (≈ 90.7 µM)	16 (≈ 45.4 µM)	64	16 (≈ 45.4 µM)	8 (≈ 22.7 µM)	8 (≈ 22.7 µM)	64 (≈ 181 µM)	32 (≈ 90.7 µM)	0.8	64	0.2	32 (≈ 90.7 µM)	16 (≈ 45.4 µM)	64 (≈ 181 µM)	16 (≈ 45.4 µM)	0.8	1.6	Activity (Human respirovirus 3 [19]): 0.025 µg/mL; MIC (Staphylococcus aureus [20]): 64 mg/L (≈ 181 µM); Activity (Human alphaherpesvirus 1 [21]): 0.05 µg/mL; MIC (Proteus mirabilis [22]): 64 mg/L
